# Experimental data: US9981930B1, “MAGL inhibitors” (ABIDE THERAPEUTICS, INC., priority 2016, dated 2018)
# What was measured:
# MAGL Human = target: T1, MAGL Human (Homo sapiens, UniProt Q99685); assay: In vitro competitive activity-based protein profiling (human); assay type: biochemical; conditions: human prefrontal cortex or cell membrane fractions; 30 min preincubation at 37° C.; FP-Rh or JW912 probe
# T1 construct: Proteomes (human prefrontal cortex or cell membrane fractions); from tissue; host or cells: human prefrontal cortex or cell membrane fractions
# T1 sequence (Q99685 1-303): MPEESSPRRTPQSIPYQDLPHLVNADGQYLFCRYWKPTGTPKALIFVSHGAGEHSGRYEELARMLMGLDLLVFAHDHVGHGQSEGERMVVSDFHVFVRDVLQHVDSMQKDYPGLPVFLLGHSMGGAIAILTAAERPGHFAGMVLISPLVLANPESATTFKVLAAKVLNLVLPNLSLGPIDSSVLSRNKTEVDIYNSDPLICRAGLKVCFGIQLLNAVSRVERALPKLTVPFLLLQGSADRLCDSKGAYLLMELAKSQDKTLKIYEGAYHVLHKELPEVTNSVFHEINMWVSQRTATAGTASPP
# Description: In Vitro Competitive Activity-Based Protein Profiling (Human).
# (§1) Proteomes (human prefrontal cortex or cell membrane fractions) (50 μL, 1.0-2.0 mg/mL total protein concentration) were preincubated with varying concentrations of inhibitors at 37° C. After 30 min, FP-Rh or JW912 (1.0 μL, 50 μM in DMSO) was added and the mixture was incubated for another 30 min at room temperature. Reactions were quenched with SDS loading buffer (15 μL-4×) and run on SDS-PAGE. Following gel imaging, serine hydrolase activity was determined by measuring fluorescent intensity of gel bands corresponding to MAGL using ImageJ 1.49k software.
# MAGL = target: T2, MAGL (Mus musculus, UniProt O35678); assay: Mouse brain proteomes from inhibitor treated mice (ex vivo activity-based protein profiling after oral gavage); assay type: in vivo; conditions: 5 mg/kg oral gavage, C57Bl/6J mice, brain proteomes 4 h following administration
# T2 construct: from tissue; host or cells: brain of wild-type C57Bl/6J mice
# T2 sequence (O35678 1-303): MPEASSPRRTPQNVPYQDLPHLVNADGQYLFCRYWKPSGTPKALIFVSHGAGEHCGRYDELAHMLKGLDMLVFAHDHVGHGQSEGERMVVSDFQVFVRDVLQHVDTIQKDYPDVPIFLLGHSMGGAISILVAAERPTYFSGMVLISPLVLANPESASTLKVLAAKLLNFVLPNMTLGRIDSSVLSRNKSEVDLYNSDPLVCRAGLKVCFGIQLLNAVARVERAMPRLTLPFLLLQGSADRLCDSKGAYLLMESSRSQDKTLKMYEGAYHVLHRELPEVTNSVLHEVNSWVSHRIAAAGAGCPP
# Description: as §1, with “(mouse brain membrane fraction” for “(human prefrontal cortex”, “lysates)” for “membrane fractions)”, “1.0” for “1.0-2.0”, “FP-Rh” for “FP-Rh or JW912”, “37° C.” for “room temperature.”, “(50” for “(15”
# Preparation of Mouse Brain Proteomes from Inhibitor Treated Mice.
Structure (SMILES),IC50 (MAGL Human),inhibition at 5 mg/kg (MAGL)
"O=C(O)CCNc1cc(Cl)ccc1CN1CCN(C(=O)OC(C(F)(F)F)C(F)(F)F)CC1 [Example 5, 3-((5-Chloro-2-((4-(((1,1,1,3,3,3-hexafluoropropan-2-yl)oxy)carbonyl)piperazin-1-yl)methyl)phenyl)amino)propanoic acid]",< 0.1 µM,
"O=C(O)CCCNc1cc(C(F)(F)F)ccc1CN1CCN(C(=O)OC(C(F)(F)F)C(F)(F)F)CC1 [Example 1, 4-((2-((4-(((1,1,1,3,3,3-Hexafluoropropan-2-yl)oxy)carbonyl)piperazin-1-yl)methyl)-5-(trifluoromethyl)phenyl)amino)butanoic acid]",< 0.1 µM,> 75%
"O=C(O)CNc1cc(Cl)ccc1CN1CCN(C(=O)OC(C(F)(F)F)C(F)(F)F)CC1 [Example 3, (5-Chloro-2-((4-(((1,1,1,3,3,3-hexafluoropropan-2-yl)oxy)carbonyl)piperazin-1-yl)methyl)phenyl)glycine]",< 0.1 µM,25 to 75%
"O=C(O)CNc1cc(C(F)(F)F)ccc1CN1CCN(C(=O)OC(C(F)(F)F)C(F)(F)F)CC1 [Example 6, (2-((4-(((1,1,1,3,3,3-Hexafluoropropan-2-yl)oxy)carbonyl)piperazin-1-yl)methyl)-5-(trifluoromethyl)phenyl)glycine]",< 0.1 µM,
"O=C(O)CCCNc1cc(Cl)ccc1CN1CCN(C(=O)OC(C(F)(F)F)C(F)(F)F)CC1 [Example 2, 4-((5-Chloro-2-((4-(((1,1,1,3,3,3-hexafluoropropan-2-yl)oxy)carbonyl)piperazin-1-yl)methyl)phenyl)amino)butanoic acid]",< 0.1 µM,25 to 75%
"C[C@H](Nc1cc(C(F)(F)F)ccc1CN1CCN(C(=O)OC(C(F)(F)F)C(F)(F)F)CC1)C(=O)O [Example 7, (2-((4-(((1,1,1,3,3,3-hexafluoropropan-2-yl)oxy)carbonyl)piperazin-1-yl)methyl)-5-(trifluoromethyl)phenyl)-L-alanine]",< 0.1 µM,25 to 75%
"O=C(O)CCNc1cc(C(F)(F)F)ccc1CN1CCN(C(=O)OC(C(F)(F)F)C(F)(F)F)CC1 [Example 4, 3-((2-((4-(((1,1,1,3,3,3-Hexafluoropropan-2-yl)oxy)carbonyl)piperazin-1-yl)methyl)-5-(trifluoromethyl)phenyl)amino)propanoic acid]",< 0.1 µM,> 75%
